Data from patent publication US11548868B2, “Heterocyclic compounds, compositions comprising heterocyclic compound, and methods of use thereof” (JS INNOPHARM (SHANGHAI) LTD, priority 2017, dated 2023).

Legend:
[1] = biological target: T1, IDO1 in Hela cancer cells (Homo sapiens, UniProt P14902); experiment: IDO1 Cellular Assay (kynurenine production in IFN-γ stimulated Hela cancer cells); type: cell-based; details: human IFN-γ 50 ng/mL, 48 hours incubation, kynurenine at 490 nm
T1 construct: endogenous in cells; host or cells: Hela cancer cells stimulated with human IFN-γ
T1 sequence (P14902 whole entry): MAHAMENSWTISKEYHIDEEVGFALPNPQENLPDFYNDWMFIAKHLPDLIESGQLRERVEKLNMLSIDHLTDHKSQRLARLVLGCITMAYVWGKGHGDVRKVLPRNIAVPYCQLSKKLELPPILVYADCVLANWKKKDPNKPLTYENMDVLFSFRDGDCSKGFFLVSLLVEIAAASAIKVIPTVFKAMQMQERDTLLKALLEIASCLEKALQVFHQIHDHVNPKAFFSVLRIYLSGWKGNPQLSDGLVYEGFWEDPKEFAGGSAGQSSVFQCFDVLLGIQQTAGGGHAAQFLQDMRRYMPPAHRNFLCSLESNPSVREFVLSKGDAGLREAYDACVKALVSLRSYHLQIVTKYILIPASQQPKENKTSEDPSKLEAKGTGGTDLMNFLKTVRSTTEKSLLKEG
Protocol: Hela cancer cells (5×10^3 per well) with 85 μL DMEM medium containing 10% FBS were seeded in a 96-well plate and incubated at 95% humidity and 5% CO2 at 37° C. for 24 hours. human IFN-γ (10 μL, 50 ng/mL final concentration) and 5 μL serial dilutions of the test compounds were added into each well. The test compounds were dissolved in DMSO, and successively diluted with pH7.5 buffer (with final DMSO concentration of 0.25%) resulting in final concentrations of the test compounds ranging from 0 to 25 μM (0, 2.5, 7.5, 25, 75, 250, 750, 2500, 7500, & 25000 nM). After 48 hours of incubation, 70 uL of the supernatant per well was transferred to a new 96 well plate. Trichloroacetic acid (6.1 N, 8 μL) was mixed into each well and incubated at 50° C. for 30 min to hydrolyze N-formylkynurenine produced by IDO to kynurenine. The reaction mixture was then centrifuged for 10 min at 2500 RPM to remove sediments. 50 μL of the supernatant per well was transferred to another 96 well plate and mixed with 50 uL of 2% (w/v) p-dimethylaminobenzaldehyde in acetic acid. The yellow color derived from kynurenine was measured at 490 nm using a microplate reader. Percent inhibition of the test compounds was determined by measuring the decrease in kynurenine as compared to the control of DMSO vehicle, which was calculated by formula of (WC-WT)/WC, where WC is the mean absorbance of the control well minus blank well; WT is the mean absorbance of the test well minus the blank well. Data was analyzed by GraphPad Prism 5 and the IC50 values were obtained by non-linear regression.
The IC50 values of for Compounds disclosed are listed in Table 2, A′: ≤0.5 μM; B′: >0.5 μM and ≤1 μM; C′: >1.0 μM and ≤5 uM; and D′: >5 μM.

[2] = biological target: T2, TDO2 in A172 cancer cells (Homo sapiens, UniProt P48775); experiment: TDO2 Cellular Assay (kynurenine production in A172 cancer cells); type: cell-based; details: L-Trp 1 mM, 24 hours incubation, kynurenine at 490 nm
T2 construct: endogenous in cells; host or cells: A172 cancer cells
T2 sequence (P48775 whole entry): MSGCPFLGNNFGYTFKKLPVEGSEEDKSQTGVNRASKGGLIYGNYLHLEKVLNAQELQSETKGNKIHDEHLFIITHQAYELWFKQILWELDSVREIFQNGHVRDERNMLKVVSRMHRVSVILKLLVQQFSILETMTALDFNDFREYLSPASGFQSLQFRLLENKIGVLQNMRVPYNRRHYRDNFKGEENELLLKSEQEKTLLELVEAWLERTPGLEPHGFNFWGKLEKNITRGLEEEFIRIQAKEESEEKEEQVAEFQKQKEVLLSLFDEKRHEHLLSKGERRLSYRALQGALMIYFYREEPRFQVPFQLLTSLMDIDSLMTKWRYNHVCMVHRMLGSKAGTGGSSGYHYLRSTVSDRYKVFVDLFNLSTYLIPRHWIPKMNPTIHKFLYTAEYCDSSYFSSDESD
In short: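 Kynurenine output of A172 cells was read colorimetrically at 490 nm (Ehrlich reagent after TCA hydrolysis at 50 °C). Cells had 1 mM L-Trp plus compound at 0–25 μM in 0.25% DMSO for 24 h; IC50 values were fitted non-linearly from percent inhibition relative to vehicle.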

Row | Compound | IC50 [1] | IC50 [2]
1 | O=S(=O)(NC1CC1)N[C@H]1[C@@H]2C[C@@](O)(c3cc(Cl)cc4[nH]ncc34)C[C@@H]21 [Example 160, N′-cyclopropyl-N-((1R,3r,5S,6r)-3-(6-chloro-1H-indazol-4-yl)-3-hydroxybicyclo[3.1.0]hexan-6-yl)sulfuric diamide] | 1 to 5 µM | ≤ 0.5 µM
2 | O=C(N[C@H]1[C@@H]2C[C@@](O)(c3cc(Cl)cc4[nH]ncc34)C[C@@H]21)c1cc(F)cc(Cl)c1 [Example 152, 3-chloro-N-((1R,3r,5S,6r)-3-(6-chloro-1H-indazol-4-yl)-3-hydroxybicyclo[3.1.0]hexan-6-yl)-5-fluorobenzamide] | 0.5 to 1 µM | ≤ 0.5 µM
3 | CS(=O)(=O)N[C@H]1[C@@H]2C[C@@](O)(c3cc(Cl)cc4[nH]ncc34)C[C@@H]21 [Example 63, N-((1R,3r,5S,6r)-3-(6-chloro-1H-indazol-4-yl)-3-hydroxybicyclo[3.1.0]hexan-6-yl)methanesulfonamide] | 0.5 to 1 µM | ≤ 0.5 µM
4 | O=C(N[C@H]1[C@@H]2C[C@@](O)(c3cc(Cl)cc4[nH]ncc34)C[C@@H]21)c1cncc(F)c1 [Example 173, N-((1R,3r,5S,6r)-3-(6-chloro-1H-indazol-4-yl)-3-hydroxybicyclo[3.1.0]hexan-6-yl)-5-fluoronicotinamide] | 0.5 to 1 µM | ≤ 0.5 µM
5 | O=C(N[C@@H]1[C@H]2C=C(c3cc(Cl)cc4[nH]ncc34)C[C@H]21)C1CC1 (racemic) [Example 183, Racemic-N-((1S,5R,6S)-3-(6-chloro-1H-indazol-4-yl)bicyclo[3.1.0]hex-2-en-6-yl)cyclopropanecarboxamide] | > 5 µM | 1 to 5 µM

Second part, the molecule after the results:

Row | IC50 [1] | IC50 [2] | Compound
6 | ≤ 0.5 µM | ≤ 0.5 µM | O=C(N[C@H]1[C@@H]2C[C@@](O)(c3cc(C(F)(F)F)cc4[nH]ncc34)C[C@@H]21)c1cccc(Cl)c1 [Example 163, 3-chloro-N-((1R,3r,5S,6r)-3-hydroxy-3-(6-(trifluoromethyl)-1H-indazol-4-yl)bicyclo[3.1.0]hexan-6-yl)benzamide]
7 | 1 to 5 µM | ≤ 0.5 µM | O=C(Nc1ccccc1)N[C@H]1[C@@H]2C[C@@](O)(c3cc(Cl)cc4[nH]ncc34)C[C@@H]21 [Example 115, 1-((1R,3r,5S,6r)-3-(6-chloro-1H-indazol-4-yl)-3-hydroxybicyclo[3.1.0]hexan-6-yl)-3-phenylurea]
8 | ≤ 0.5 µM | ≤ 0.5 µM | O=C(N[C@H]1[C@@H]2C[C@@](O)(c3cc(Cl)cc4[nH]ncc34)C[C@@H]21)c1cccc(C2CC2)c1 [Example 178, N-((1R,3r,5S,6r)-3-(6-chloro-1H-indazol-4-yl)-3-hydroxybicyclo[3.1.0]hexan-6-yl)-3-cyclopropylbenzamide]
9 | > 5 µM | ≤ 0.5 µM | CC(=O)N[C@H]1[C@@H]2C[C@@](O)(c3cc(Cl)cc4cn[nH]c34)C[C@@H]21 [Example 108, N-((1R,3r,5S,6r)-3-(5-chloro-1H-indazol-7-yl)-3-hydroxybicyclo[3.1.0]hexan-6-yl)acetamide]
10 | 0.5 to 1 µM | ≤ 0.5 µM | O=C(N[C@H]1C[C@@H]2C[C@@](O)(c3cc(Cl)cc4[nH]ncc34)C[C@@H]2C1)c1cccc(Cl)c1 [Example 166, 3-chloro-N-((2r,3aR,5r,6aS)-5-(6-chloro-1H-indazol-4-yl)-5-hydroxyoctahydropentalen-2-yl)benzamide]
11 | > 5 µM | 1 to 5 µM | O=C(C1CC1)N1C[C@@H]2C[C@@](O)(c3cc(Cl)cc4cn[nH]c34)C[C@@H]2C1 [Example 99, ((3aR,5r,6aS)-5-(5-chloro-1H-indazol-7-yl)-5-hydroxyhexahydrocyclopenta[c]pyrrol-2(1H)-yl)(cyclopropyl)methanone]
12 | > 5 µM | ≤ 0.5 µM | O=C(NC1CCCCC1)N[C@H]1[C@@H]2C[C@@](O)(c3cc(Cl)cc4[nH]ncc34)C[C@@H]21 [Example 126, 1-((1R,3r,5S,6r)-3-(6-chloro-1H-indazol-4-yl)-3-hydroxybicyclo[3.1.0]hexan-6-yl)-3-cyclohexylurea]
